What all share (assay type): cell-based
One test concerns Septoria tritici. The experiment in a line: Activity against leaf blotch on wheat caused by Septoria tritici (microtiter plate test). The note with it: 0.25 ppm; 7 days after inoculation, 405 nm.
The subject of the next test is Botrytis cinerea. The experiment in a line: Activity against the grey mold Botrytis cinerea in the microtiterplate test. The following applies: 7 days after inoculation, 405 nm.
The subject of the next test is Pyricularia oryzae. The note with it: 4 ppm; 7 days after inoculation, 405 nm.
A further test deals with Sclerotinia sclerotiorum. The experiment in a line: Activity against stem rot on wheat caused by Sclerotinia sclerotiorum (microtiter plate test). The following applies: 7 days after inoculation, 405 nm.

As for `O=C(Nc1ccccc1-c1ccc(Cl)cc1)c1cccnc1Cl` [Boscalid, 2-chloro-N-(4'-chlorobiphenyl-2-yl)-nicotinamide], the Observed efficacy in the test with Septoria tritici worked out at 40%.
In the case of `Cc1cc(C)nc(Nc2ccccc2)n1` [Pyrimethanil, 4,6-dimethylpyrimidin-2-ylphenylamine], the Observed efficacy with Botrytis cinerea (1 ppm) turned out to be 39%; in the test on Botrytis cinerea (4 ppm), 60%; with Pyricularia oryzae, 37%; in the test on Sclerotinia sclerotiorum (1 ppm), 20%; in the test on Sclerotinia sclerotiorum (4 ppm), 27%; in the test on Sclerotinia sclerotiorum (16 ppm), 49%.

Source of the values: patent publication EP3318127A1, “COMPOSITIONS COMPRISING KHCO3” (BASF SE, priority 2013, dated 2015).
